From PubChem BioAssay (NCI)
Values joined by “and” are separate entries in the source; they are usually repeats but may differ in a detail not shown here. Equal values may be shown once.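 How tested: cells in 96-well plates exposed to compound for 48 hours at five concentrations. GI50 = concentration required for 50% inhibition of growth. TGI: concentration producing complete growth inhibition.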

Experiments:
Assay in all cases: DTP human tumour cell line panel, 48 h
SF-539 CNS = system: SF-539 CNS
NCI-H226 lung = system: NCI-H226 lung
CAKI-1 renal = system: CAKI-1 renal
SK-MEL-28 melanoma = system: SK-MEL-28 melanoma
MALME-3M melanoma = system: MALME-3M melanoma
HCT-116 colon = system: HCT-116 colon
CCRF-CEM leukemia = system: CCRF-CEM leukemia
IGROV1 ovarian = system: IGROV1 ovarian
SF-295 CNS = system: SF-295 CNS
OVCAR-3 ovarian = system: OVCAR-3 ovarian
NCI-H23 lung = system: NCI-H23 lung
NCI-H522 lung = system: NCI-H522 lung
SK-OV-3 ovarian = system: SK-OV-3 ovarian
T-47D breast = system: T-47D breast

Row | SMILES | TGI (SF-539 CNS) [µM] | GI50 (NCI-H226 lung) | TGI (NCI-H226 lung) | GI50 (CAKI-1 renal) | TGI (CAKI-1 renal) | TGI (SK-MEL-28 melanoma) [µM] | TGI (MALME-3M melanoma) [µM] | GI50 (HCT-116 colon) | TGI (HCT-116 colon) [µM] | TGI (CCRF-CEM leukemia) [µM] | TGI (IGROV1 ovarian) [µM] | TGI (SF-295 CNS) | GI50 (OVCAR-3 ovarian) | TGI (OVCAR-3 ovarian) | GI50 (NCI-H23 lung) | TGI (NCI-H23 lung) | TGI (NCI-H522 lung) | TGI (SK-OV-3 ovarian) [µM] | TGI (T-47D breast) [µM]
1 | CSc1ccc2c(cc1=O)[C@@H](NC(=O)c1ccc(N)cc1)CCc1cc(O)c(O)c(O)c1-2 | 27.6 | 16.6 µM and 1.75 µM | 40.1 µM and 5.49 µM | > 75 µM and 25.8 µM | > 75 µM and 53.2 µM | > 100 | > 100 | 23.8 µM and 11 µM | > 100 | > 100 | > 100 | 39.2 µM and 46.1 µM | 17.5 µM and 4.17 µM | 40.8 µM and 19.5 µM | 22.3 µM and 10.4 µM | 50.9 µM and 69.7 µM | 42.5 µM and 50.5 µM | > 100 | > 100
2 | CCOP(C)(=O)C(N)Cc1ccc(OC)c(OC)c1 (configuration not stated) | > 100 |  | > 100 µM |  | > 100 µM | > 100 | > 100 |  | > 100 | > 100 | > 100 | > 100 µM |  | > 100 µM |  | > 100 µM | > 100 µM | > 100 | > 100
3 | COc1cccc(-c2ccc3c4c2O[C@H]2C(=O)CC[C@@]5(O)[C@@H](C3)N(CC3CC3)CC[C@]425)c1 | 29 |  | 26.8 µM |  | 31 µM | > 100 | 36.4 |  | 33.2 | 27.9 | 44.2 | 32.6 µM |  | 27.6 µM |  | 64.8 µM | 32.9 µM | 34.5 | 41.6
4 | O=C(NNC(=S)Nc1cccc(Cl)c1)c1cc(-c2ccccc2)nc2ccccc12 | 29.8 |  | 40.5 µM |  | 43.1 µM | 26.5 | 29.9 |  | 30.3 | 32.2 | 47 | 24.5 µM |  | 34.3 µM |  | 34.4 µM | 34.9 µM | 34.5 | 36.4
5 | Cn1cc(NC(=O)c2cc(NC(=O)CN=C(N)N)cn2C)cc1C(=O)NCCC(=N)N | > 100 |  | > 100 µM |  | > 100 µM | > 100 | > 100 |  | > 100 | > 100 | > 100 | > 100 µM |  | > 100 µM |  | > 100 µM | > 100 µM | > 100 | > 100
6 | O=c1cc(-c2ccc(F)cc2)[nH]c2ncc(Cl)cc12 | 97.8 |  | > 56 µM |  | > 100 µM | > 100 | > 100 |  | > 61.3 | 77.1 | > 100 | 78.5 µM |  | > 70.5 µM |  | > 100 µM | 80.4 µM | > 100 | > 100
7 | Nc1cc2[nH]c(=O)c(=O)[nH]c2cc1N | > 100 |  | > 100 µM |  | > 100 µM | > 100 | > 100 |  | > 100 | > 100 | > 100 | > 100 µM |  | > 100 µM |  | > 100 µM | > 100 µM | > 100 | > 100
8 | COc1ccc(C(=C(Cl)c2ccccc2)c2ccc(OC)cc2)cc1 | > 100 |  | > 100 µM |  | > 100 µM | > 100 | > 100 |  | > 100 | > 100 | > 100 | > 100 µM |  | > 100 µM |  | > 100 µM | > 100 µM | > 100 | > 100
